This is an account of results in ChEMBL document CHEMBL1201862, “PubChem BioAssay data set” (2004).

Molecules are shown by their SMILES.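 Results reflect a 48-hour exposure of cells in 96-well plates to compound at five concentrations. GI50 is the concentration that inhibits growth by half.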 Calls of active or inactive are those of the source. No stated cut-off is given here; in the data, active = GI50 up to about 1.1 µM and inactive = higher.

Among the test systems are 786-0; A549; ACHN; BT-549; CAKI-1; EKVX; HCC 2998; HT-29; K562; MDA-MB-231; MDA-MB-435; MOLT-4; Malme-3M; NCI/ADR-RES; RPMI-8226; RXF 393; SF-539; SK-OV-3; SW-620; UACC-62.
Test in all cases: NCI tumour cell line growth inhibition, 48 h

`O=C(Nc1cccc2cnccc12)c1cc2c(cc1Cl)Sc1nccn1S2(=O)=O`: the GI50 was 10.9 µM (inactive) in the test on 786-0; 27.7 µM (inactive) with A549; 28.3 µM (inactive) in the test with ACHN; 10.4 µM (inactive) with BT-549; 25.8 µM (inactive) in the test on CAKI-1; 20.7 µM (inactive) with EKVX. Also, the GI50 in the test on HCC 2998 was 15.7 µM (inactive); with HT-29, 14.6 µM (inactive); in the test with K562, 16.2 µM (inactive); in the test with MDA-MB-231, 14.9 µM (inactive); in the test with MDA-MB-435, 6.76 µM (inactive); in the test with MOLT-4, 12.9 µM (inactive). Further, the GI50 in the test with Malme-3M is 19.1 µM (inactive); in the test on NCI/ADR-RES, 14.4 µM (inactive); with RPMI-8226 it was 6.11 µM (inactive); with RXF 393, 8.2 µM (inactive); in the test on SF-539 it was 14.6 µM (inactive); with SK-OV-3, 40 µM (inactive). The results for the GI50 in the test with SW-620 and with UACC-62 were 15.5 µM (inactive) and 12.4 µM (inactive), respectively.

As for `CN(C)CCNc1nc2ccccc2c2c1C(=O)c1ccccc1-2`, the GI50 with 786-0 was 0.132 µM (active); in the test with A549, 0.0581 µM (active); with ACHN it was 0.0834 µM (active); in the test on BT-549, 0.914 µM (active); with CAKI-1 it was 0.124 µM (active); in the test with EKVX, 0.361 µM (active). Moreover, the GI50 was 0.134 µM (active) in the test on HCC 2998; 0.191 µM (active) with HT-29; 0.163 µM (active) in the test with K562; 0.542 µM (active) in the test on MDA-MB-231; 0.288 µM (active) in the test on MDA-MB-435; 0.01 µM (active) with MOLT-4. Further, the GI50 with Malme-3M is 0.251 µM (active); in the test with NCI/ADR-RES, 0.267 µM (active); with RPMI-8226, 0.123 µM (active); in the test on RXF 393 it was 0.18 µM (active); in the test with SF-539, 0.382 µM (active); with SK-OV-3 it was 0.703 µM (active). Also, the GI50 in the test with SW-620 was 0.137 µM (active); in the test with UACC-62 it was 0.0849 µM (active).

As for `NC1CC(=O)c2c(I)sc(I)c21` (stereo not given), the GI50 was 11.2 µM (inactive) with 786-0; 29.8 µM (inactive) in the test with A549; 20.9 µM (inactive) in the test on ACHN; 18.4 µM (inactive) in the test on BT-549; 11.6 µM (inactive) in the test with CAKI-1; 19.9 µM (inactive) with EKVX. Moreover, the GI50 in the test with HCC 2998 is 22 µM (inactive); in the test with HT-29, 20.2 µM (inactive); in the test with K562 it was 8.95 µM (inactive); with MDA-MB-231, 20 µM (inactive); in the test with MDA-MB-435, 16.4 µM (inactive); in the test on MOLT-4 it was 12.1 µM (inactive). Further, the GI50 in the test on Malme-3M is 13.7 µM (inactive); in the test with NCI/ADR-RES, 26.9 µM (inactive); in the test with RPMI-8226, 4.41 µM (inactive); in the test on RXF 393, 21.4 µM (inactive); in the test on SF-539, 8.89 µM (inactive); in the test with SK-OV-3, 44.5 µM (inactive). Moreover, the GI50 in the test with SW-620 was 11.6 µM (inactive); in the test with UACC-62, 16.7 µM (inactive).

Regarding `CCN(C(=S)N[C@H](C(=O)N[C@@H](C)C(=O)OC)C(C)C)c1ccccc1`, the GI50 in the test with 786-0 was 59.7 µM (inactive); with A549, > 100 µM (inactive); in the test on ACHN, 64.4 µM (inactive); with BT-549 it was > 100 µM (inactive); in the test on CAKI-1 it was > 100 µM (inactive); with EKVX it was > 100 µM (inactive). Further, the GI50 in the test on HCC 2998 was > 100 µM (inactive); with HT-29, 31.5 µM (inactive); in the test on K562, 22.7 µM (inactive); in the test with MDA-MB-231, > 100 µM (inactive); with MDA-MB-435 it was 64 µM (inactive); in the test on MOLT-4, 25.4 µM (inactive). Also, the GI50 was 21.8 µM (inactive) in the test on Malme-3M; > 100 µM (inactive) with NCI/ADR-RES; 63.2 µM (inactive) with RPMI-8226; 62.1 µM (inactive) in the test on RXF 393; 28 µM (inactive) in the test on SF-539; > 100 µM (inactive) in the test on SK-OV-3. Also, the GI50 in the test on SW-620 was 59.7 µM (inactive); in the test with UACC-62 it was 76.7 µM (inactive).

Consider `Clc1ccc(C2C3COc4ccccc4C3=NN2c2ccccc2)cc1` (stereo not given), for which the GI50 in the test with 786-0 is > 29.6 µM (inactive); with A549 it was > 100 µM (inactive); in the test on ACHN, > 100 µM (inactive); in the test on BT-549 it was 68.5 µM (inactive); with CAKI-1, 58.9 µM (inactive); in the test on EKVX, > 100 µM (inactive). Besides, the GI50 with HCC 2998 is > 100 µM (inactive); in the test with HT-29, 29.4 µM (inactive); in the test with K562, 3.19 µM (inactive); with MDA-MB-231, 59.3 µM (inactive); in the test with MDA-MB-435, 36.5 µM (inactive); in the test with MOLT-4 it was 8.73 µM (inactive). For the same compound, the GI50 in the test with Malme-3M was > 100 µM (inactive); in the test with NCI/ADR-RES, 29.7 µM (inactive); in the test with RPMI-8226, 2.1 µM (inactive); in the test on RXF 393 it was 95.5 µM (inactive); with SF-539, 34.4 µM (inactive); with SK-OV-3, > 100 µM (inactive). Further, the GI50 in the test with SW-620 is 5.05 µM (inactive); in the test with UACC-62, 64.7 µM (inactive).

Take `CCOP(=O)(OCC)/C(C#N)=C/c1[nH]cnc1C`: the GI50 in the test with 786-0, in the test with A549, in the test with ACHN, in the test with BT-549, in the test with CAKI-1 and in the test on EKVX was > 100 µM (inactive) in each case. Also, the GI50 in the test with HCC 2998, in the test on HT-29, in the test on K562, in the test on MDA-MB-231, with MDA-MB-435 and in the test with MOLT-4 was > 100 µM (inactive) throughout. The GI50 in the test on Malme-3M is > 100 µM (inactive); in the test on NCI/ADR-RES it was > 100 µM (inactive); with RPMI-8226 it was > 100 µM (inactive); in the test on RXF 393, > 100 µM (inactive); in the test on SF-539 it was 49.5 µM (inactive); with SK-OV-3 it was > 100 µM (inactive). Also, the GI50 with SW-620 and in the test with UACC-62 was > 100 µM (inactive) in each case.

`Cc1[nH]c2ccccc2c1/C=N/c1ccc(/N=C/c2c(C)[nH]c3ccccc23)cc1`: the GI50 with 786-0 is 18.8 µM (inactive); in the test with A549 it was 80 µM (inactive); in the test with ACHN, 49.1 µM (inactive); in the test on BT-549, 47.9 µM (inactive); in the test on CAKI-1 it was 38.7 µM (inactive); with EKVX it was 38.9 µM (inactive). Besides, the GI50 in the test with HCC 2998 was 36.9 µM (inactive); in the test on HT-29 it was 34 µM (inactive); with K562, 21.2 µM (inactive); in the test with MDA-MB-231, 32.5 µM (inactive); in the test with MDA-MB-435 it was 19.7 µM (inactive); with MOLT-4 it was 18.9 µM (inactive). Besides, the GI50 in the test on Malme-3M is 30.8 µM (inactive); in the test on NCI/ADR-RES, 80.5 µM (inactive); with RPMI-8226 it was 18.3 µM (inactive); in the test with RXF 393, 53 µM (inactive); with SF-539, 21.4 µM (inactive); with SK-OV-3, 49.8 µM (inactive). The GI50 is 22.9 µM (inactive) in the test on SW-620 and 42.6 µM (inactive) in the test on UACC-62.
